Assay results: patent US20160199434A1, “COMPOSITIONS AND METHODS FOR MODULATING DNA METHYLATION” (OHIO STATE INNOVATION FOUNDATION, priority 2013, published 2016)
Where “and” joins values, the source holds several entries; their conditions need not be identical. Equal entries are not always repeated. Entries after “also recorded” stand apart in the source; their conditions may differ.

What was measured:
desmoplakin (DSP) mRNA = experiment: Desmoplakin mRNA expression in PyMT tumors of tumor-bearing mice; format: in vivo, mouse
Text: FIGS. 4A-4B show desmoplakin mRNA expression in vitro and in vivo.
Desmoplakin (DSP) is the major protein component of the desmosome located in the inner membrane of epithelial cells where it binds desmosomal cadherins to maintain cell-to-cell adhesion. DSP is regulated by ER/PR expression (Maynadier et al. 2012; Ahmed et al., 1995; Pang et al., 2004). Clinically, expression of DSP is higher in normal mammary epithelium. Loss of DSP correlates with less differentiated breast tumors and increased lymph node involvement. […] Functional desmoplakin that is incorporated into the desmosome is not phosphorylated at serine 165/166. Phosphorylation at ser165/166 by protein kinase C (PKC) causes desmoplakin to disassemble from the desmosome. The loss of desmosome function and decreased adherence junctions are markers that can inform tumor staging, prognosis, and treatment planning as this transition eliminates therapeutic effectiveness and increases the likelihood of poor clinical outcome (Dusek et al., 2011). Further, loss of DSP is a marker in the Epithelial-to-Mesenchymal Transition (EMT) process as it binds to adherence proteins that also translocate to the nucleus and activate the Wnt/β-catenin pathway (Yang et al., 2012).
The gene expression signatures from the tumors of PyMT breast tumor-bearing mice that were treated with either vehicle or AKB-6899 were evaluated. […]

DNMT-3a = DNMT-3a transcription in H1703 lung cancer cells; format: cell-based, human; settings: H1703 cells in vitro, dose-dependent (FIG. 10A)
Text: In FIG. 10A, AKB-6899 inhibited DNMT-1, DNMT-3a, and DNMT-3b transcription in a dose-dependent manner in human squamous cell carcinoma lung cancer cells (H1703), in vitro. The DMSO-treated DNMT mRNAs are over 1.0, meaning the level of expression is higher than the housekeeping control gene, CAP1. In FIG. 10B, AKB-6899 inhibited DNMT-3a and DNMT-3b transcription in human adenocarcinoma lung cancer cells (A549). The DMSO-treated DNMT mRNAs are under 1.0, meaning the level of expression is lower than the housekeeping control gene, CAP1.

A549 adenocarcinoma = experiment: XTT cell survival assay, A549 lung cancer cells; format: cell-based, human; settings: A549, increasing doses (FIG. 13B)
Text: FIGS. 13A-13B show XTT cell survival assays for normal lung epithelial cells (BEAS-2B) and lung cancer cells (H1703 squamous cell carcinoma and A549 adenocarcinoma) in response to increasing doses of AKB-6899.

DNMT-1 = DNMT-1 mRNA expression by RT-PCR in PyMT tumor cells; format: cell-based, mouse; settings: for DNMT-1 mRNA expression: PyMT tumor cells, 24 hours, compared to DMSO (FIG. 1A)
Method: FIGS. 1A-1E show DNA methyltransferase mRNA expression in vitro and in vivo. […] PyMT tumor cells were left untreated, were treated with DMSO, or were treated with AKB-6899 (10, 25, or 50 μM) for 24 hours. The cells were subjected to Trizol extraction to recover total RNA. cDNA was synthesized for RT-PCR of DNMT-1 and DNMT-3a mRNA expression. […] Human MDA-MB-231 tumor cells were left untreated, were treated with DMSO, or were treated with AKB-6899 (25 μM) for 24 hours. Total RNA was isolated for RT-PCR. FIG. 1C (DNMT-1), FIG. 1D (DNMT-3a), and FIG. 1E (DNMT-3b) compare the effect of AKB-6899 with the effect of 5-aza-2′deoxycytidine (5-AZA) as assessed by RT-PCR in human cervical tumors implanted in mice that were either untreated (UTX), treated with DMSO, treated with 5-AZA, or treated with AKB-6899 (17.5 mg/kg).
(§1) Because DSP is regulated by ER/PR expression, and because late-stage PyMT tumors lose ER/PR-positivity and heavily metastasize to the lymph nodes and lungs (Lin et al., 2003), the effects of AKB-6899 on more global events that regulate gene expression was evaluated. PyMT tumor cells in culture were treated with DMSO or AKB-6899. Methylation-specific PCR for CpG islands in the desmoplakin promoter were performed. […] Trypan Blue confirmed no cell death in AKB-6899 treated cells when compared to control cells. The experiment was repeated and RNA was isolated from the cells. RT-PCR was performed and the regulation of DNA methyltransferases (DNMTs) was evaluated. […] (FIG. 1A). The decrease in mRNA levels of DNMT-1 and DNMT-3a increased the mRNA level of DSP (FIG. 4A) and increased desmoplakin protein expression (FIG. 5A).

[1] = test system: panel of 14 common tumor suppressor genes; experiment: mRNA expression of 14 tumor suppressor genes in H1703 cells; format: cell-based, human
Text: FIGS. 12A-12D show the level of mRNA expression for a panel of 14 common tumor suppressor genes in two types of human lung cancer cells (i.e., H1703 squamous cell carcinoma in FIG. 12A and A549 adenocarcinoma in FIG. 12B). […] All of the tumor suppressor mRNAs were augmented in response to AKB-6899 but one, the CDKN1C gene in A549 adenocarcinoma cells, in which expression levels were 0.1 (AKB10) and 0.9 (AKB50) compared to DMSO standardized to 1.0. In FIGS. 12A-12B, the following apply: “1”=DMSO, “2”=AKB-6899 (10 μM), “3”=AKB-6899 (50 μM), and “4”=combination of Decitabine (5 μM)/PBA (2 mM). FIGS. 12C and 12D are raw values for mRNA expression of these 14 genes.

[2] = test system: desmoplakin (DSP) gene promoter; experiment: Methylation-specific PCR of DSP promoter in PyMT breast cancer cells; format: cell-based, mouse
Method: FIGS. 3A-3E show the effect of AKB-6899 (25 μM) on methylation of the desmoplakin (DSP) gene promoter in PyMT breast cancer cells (3A), human MDA-MB-231 triple negative breast cancer cells (3B), human C8161.9 melanoma cells (3C), and human MCF-7 breast cancer cells (3D). In FIG. 3A, the DSP promoter was 100% unmethylated (AKB-6899) vs. 99.99% methylated (vehicle). In FIG. 3B, the DSP promoter was 99.62% unmethylated (AKB-6899) v. 99.89% (vehicle). In FIG. 3C, the DSP promoter was 99.90% unmethylated (AKB-6899) v. 42.04% (vehicle). In FIG. 3D, the DSP promoter was 92.48% unmethylated (AKB-6899) v. 98.48% (vehicle). In FIG. 3E, when compared to the vehicle (DMSO), treatment of PyMT cells with AKB-6899 increased DSP expression.
as §1

O=C(O)CNC(=O)c1ncc(-c2cccc(F)c2)cc1O [AKB-6899, {[5-(3-Fluorophenyl)-3-hydroxypyridine-2-carbonyl]amino}acetic acid]
increase in DSP mRNA expression (desmoplakin (DSP) mRNA; PyMT breast tumor-bearing mice, 17.5 mg/kg, vs DMSO/vehicle animals, 17.5 mg/kg): ~118 fold and 118.5 fold | desmoplakin expression from PyMT tumors (in words) (desmoplakin (DSP) mRNA; in vivo, compared to vehicle (FIG. 4B)): significantly increased | DNMT-3a transcription (DNMT-3a): inhibited | cell survival / toxicity (A549 adenocarcinoma): pronounced toxicity | DNMT-1 mRNA level (DNMT-1; PyMT tumor cells in culture, concentration not given): significant decreases; also recorded: downregulated | DNMT-1 mRNA expression (DNMT-1; 10 μM): significantly inhibited | DNMT-1 mRNA expression (DNMT-1; 25 μM): significantly inhibited | DNMT-1 mRNA expression (DNMT-1; 50 μM): significantly inhibited | tumor suppressor mRNA expression ([1]; H1703, 10 μM and 50 μM, vs DMSO): augmented | induction of mRNA expression in H1703 compared with A549 ([1]; H1703 vs A549, Decitabine 5 μM/PBA 2 mM): more effective | DSP promoter unmethylated ([2]; PyMT breast cancer cells, 25 μM (FIG. 3A)): 100% | desmoplakin promoter methylation after treatment ([2]; PyMT mouse breast cancer cells): 0.0% | methylation state of DSP promoter CpG islands (in words) ([2]; PyMT tumor cells in culture): entirely unmethylated; also recorded: near complete
